Where two headings read alike, the source gives them in different places.
Tests used:
[1] = molecular target: T1, T-type calcium channel α1H (Cav3.2) (Homo sapiens, UniProt O95180); test: Two-electrode voltage clamp on Xenopus unfertilized oocytes expressing α1H T-type calcium channel; assay type: cell-based; conditions: test potential -20 mV from -90 mV; for inhibition at 100 µM: read-out: inhibitory effect (blocking percentage), Xenopus oocyte (α1H) at 100 μM
T1 construct: expressed in transfected cells; host or cells: Xenopus laevis unfertilized oocytes injected with cRNA (pGEM-HEA linearised with AflII, T7 transcription)
T1 sequence (O95180 whole entry): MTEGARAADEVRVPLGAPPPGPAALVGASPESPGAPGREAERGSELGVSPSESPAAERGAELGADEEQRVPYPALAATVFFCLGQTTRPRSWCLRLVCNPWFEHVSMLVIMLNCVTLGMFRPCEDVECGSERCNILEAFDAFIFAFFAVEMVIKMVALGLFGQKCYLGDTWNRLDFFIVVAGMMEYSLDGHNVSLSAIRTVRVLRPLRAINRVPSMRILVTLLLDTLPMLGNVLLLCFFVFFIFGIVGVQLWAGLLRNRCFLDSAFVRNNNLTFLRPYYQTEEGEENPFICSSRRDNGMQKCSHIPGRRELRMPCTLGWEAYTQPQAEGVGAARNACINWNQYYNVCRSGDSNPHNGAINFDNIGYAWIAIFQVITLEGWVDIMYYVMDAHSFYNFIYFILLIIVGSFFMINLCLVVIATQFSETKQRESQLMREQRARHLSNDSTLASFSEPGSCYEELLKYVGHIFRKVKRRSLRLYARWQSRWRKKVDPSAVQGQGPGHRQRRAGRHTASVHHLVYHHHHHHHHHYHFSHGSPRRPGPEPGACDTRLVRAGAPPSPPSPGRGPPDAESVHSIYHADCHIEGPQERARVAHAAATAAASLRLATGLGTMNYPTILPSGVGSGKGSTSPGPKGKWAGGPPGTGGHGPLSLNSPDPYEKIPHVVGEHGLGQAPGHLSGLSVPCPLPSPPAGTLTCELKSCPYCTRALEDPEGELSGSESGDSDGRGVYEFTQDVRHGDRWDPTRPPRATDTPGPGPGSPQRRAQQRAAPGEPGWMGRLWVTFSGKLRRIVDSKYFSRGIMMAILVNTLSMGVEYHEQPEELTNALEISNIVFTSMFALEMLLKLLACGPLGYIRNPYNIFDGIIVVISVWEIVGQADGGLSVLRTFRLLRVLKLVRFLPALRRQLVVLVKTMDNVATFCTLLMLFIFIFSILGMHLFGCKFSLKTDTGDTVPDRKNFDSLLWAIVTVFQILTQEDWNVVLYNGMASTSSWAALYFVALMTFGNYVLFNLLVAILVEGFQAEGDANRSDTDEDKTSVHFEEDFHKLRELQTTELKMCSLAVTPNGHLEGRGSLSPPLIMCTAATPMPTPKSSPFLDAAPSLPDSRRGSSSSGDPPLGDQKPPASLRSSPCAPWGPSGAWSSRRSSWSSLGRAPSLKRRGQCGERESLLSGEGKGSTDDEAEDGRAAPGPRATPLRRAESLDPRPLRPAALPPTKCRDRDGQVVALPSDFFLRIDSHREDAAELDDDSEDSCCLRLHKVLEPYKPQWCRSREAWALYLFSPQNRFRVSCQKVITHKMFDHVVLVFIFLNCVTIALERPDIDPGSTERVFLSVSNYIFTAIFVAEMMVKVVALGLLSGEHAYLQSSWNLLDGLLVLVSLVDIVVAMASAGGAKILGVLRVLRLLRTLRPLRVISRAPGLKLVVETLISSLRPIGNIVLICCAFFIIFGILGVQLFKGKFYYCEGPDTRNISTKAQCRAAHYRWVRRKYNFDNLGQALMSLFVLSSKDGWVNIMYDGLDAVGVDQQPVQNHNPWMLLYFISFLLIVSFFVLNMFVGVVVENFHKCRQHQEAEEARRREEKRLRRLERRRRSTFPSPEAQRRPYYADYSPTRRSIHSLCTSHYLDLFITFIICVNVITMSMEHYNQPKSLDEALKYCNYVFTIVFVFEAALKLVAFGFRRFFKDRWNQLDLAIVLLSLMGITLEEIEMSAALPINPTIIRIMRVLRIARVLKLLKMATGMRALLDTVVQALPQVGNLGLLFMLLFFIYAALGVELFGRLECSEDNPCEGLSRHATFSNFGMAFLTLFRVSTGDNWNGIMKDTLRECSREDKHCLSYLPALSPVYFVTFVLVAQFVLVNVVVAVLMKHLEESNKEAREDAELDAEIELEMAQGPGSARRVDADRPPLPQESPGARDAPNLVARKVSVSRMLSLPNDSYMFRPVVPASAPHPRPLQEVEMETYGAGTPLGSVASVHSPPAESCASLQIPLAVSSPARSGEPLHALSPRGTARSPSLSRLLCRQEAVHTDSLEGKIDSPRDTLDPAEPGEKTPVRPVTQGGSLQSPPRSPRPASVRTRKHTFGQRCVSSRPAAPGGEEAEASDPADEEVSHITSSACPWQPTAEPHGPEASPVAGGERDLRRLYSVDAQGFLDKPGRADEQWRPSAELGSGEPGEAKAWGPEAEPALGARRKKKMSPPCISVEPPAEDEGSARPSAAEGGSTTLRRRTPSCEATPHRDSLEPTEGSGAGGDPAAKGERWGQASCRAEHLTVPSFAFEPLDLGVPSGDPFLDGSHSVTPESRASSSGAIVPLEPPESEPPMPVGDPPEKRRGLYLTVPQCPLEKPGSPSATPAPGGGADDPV
Experimental: In order to express a gene encoding T-type calcium channel α1H (Cav3.2) (Cribbs, L. L. et al., Circ. Res., 1998, 83, 103-109) in unfertilized Xenopus oocytes, pGEM-HEA was treated with restriction enzyme AflII to obtain a DNA fragment containing 5′-terminal region having the T-type calcium channel cDNA (AF051946). cRNA having a corresponding sequence to that of the fragment was synthesized using T7 RNA polymerase according to the manufacturer's instructions (mMESSAGE mMACHINE kit, Ambion, Austin, U.S.A.). The synthesized cRNA was quantified by measuring the O.D. value with a spectrophotometer. At this time, unfertilized oocytes were prepared from female Xenopus laevis (Xenopus I, U.S.A.) according to the following method. After the frog's abdomen was incised by about 1 cm, three to four lobes were detached therefrom with scissors and separated into small pieces to which several oocytes were attached. The small pieces were hydrolyzed in OR solution (82.5 mM NaCl, 2.5 mM KCl, 1 mM MgCl2, 5 mM HEPES, pH 7.6) and supplemented with collagenase type IA (Sigma, U.S.A.) to remove defolliculation. After selecting healthy oocytes with a dissecting microscope, they were soaked in SOS solution (100 mM NaCl, 2 mM KCl, 1.8 mM CaCl2, 1 mM MgCl2, 5 mM HEPES, 2.5 mM pyruvate, […] gentamicin, pH 7.6) for 3 to 4 hours to revitalize them. 2 to 5 ng of cRNA was injected into each oocyte using Nano-injector. The oocytes were subjected to a test in order to examine the electrical properties of the channel expressed therefrom 4 to 5 days after the injection while being maintained at 18° C.
The current of the calcium channel expressed from the Xenopus unfertilized oocytes was measured according to a two-electrode voltage clamping method. The current was measured in 10 mM Ba^2+ solution (10 mM Ba(OH)2, 90 mM NaOH, 1 mM KCl, 0.1 mM EDTA, 5 mM HEPES, pH was adjusted to 7.4 with methanesulfonic acid). At this time, the voltage clamp and current measurement were regulated with an amplifier for unfertilized oocytes (Model OC-725C, Warner Instrument Corp., U.S.A.), and analog signals were converted into digital signals using Digidata 2000A (Analog-Digital converter, Axon Instrument). The acquisition, storage and analysis of all data were recorded in Pentium IV computer via pCLAMP8. The data were mainly collected at 5 KHz and filtered at 1 KHz (Model 902 filter; Frequency devices located at Harverhill, Mass., U.S.A.). The T-type current was generated by imposing test electric potential of −20 mV every 15 seconds on the unfertilized oocytes, the potential of which was fixed at −90 mV. A blocking percentage was calculated by comparing the […] before and after the drug treatment.

[2] = molecular target: T2, α1G T-type calcium channel (Rattus norvegicus, UniProt O54898); test: Whole cell patch clamp on HEK 293 cells expressing α1G T-type calcium channel; assay type: cell-based; conditions: for IC50: read-out: IC50, HEK293 cells (α1G)
T2 construct: expressed in transfected cells; Perez-Reyes, University of Virginia
T2 sequence (O54898 whole entry): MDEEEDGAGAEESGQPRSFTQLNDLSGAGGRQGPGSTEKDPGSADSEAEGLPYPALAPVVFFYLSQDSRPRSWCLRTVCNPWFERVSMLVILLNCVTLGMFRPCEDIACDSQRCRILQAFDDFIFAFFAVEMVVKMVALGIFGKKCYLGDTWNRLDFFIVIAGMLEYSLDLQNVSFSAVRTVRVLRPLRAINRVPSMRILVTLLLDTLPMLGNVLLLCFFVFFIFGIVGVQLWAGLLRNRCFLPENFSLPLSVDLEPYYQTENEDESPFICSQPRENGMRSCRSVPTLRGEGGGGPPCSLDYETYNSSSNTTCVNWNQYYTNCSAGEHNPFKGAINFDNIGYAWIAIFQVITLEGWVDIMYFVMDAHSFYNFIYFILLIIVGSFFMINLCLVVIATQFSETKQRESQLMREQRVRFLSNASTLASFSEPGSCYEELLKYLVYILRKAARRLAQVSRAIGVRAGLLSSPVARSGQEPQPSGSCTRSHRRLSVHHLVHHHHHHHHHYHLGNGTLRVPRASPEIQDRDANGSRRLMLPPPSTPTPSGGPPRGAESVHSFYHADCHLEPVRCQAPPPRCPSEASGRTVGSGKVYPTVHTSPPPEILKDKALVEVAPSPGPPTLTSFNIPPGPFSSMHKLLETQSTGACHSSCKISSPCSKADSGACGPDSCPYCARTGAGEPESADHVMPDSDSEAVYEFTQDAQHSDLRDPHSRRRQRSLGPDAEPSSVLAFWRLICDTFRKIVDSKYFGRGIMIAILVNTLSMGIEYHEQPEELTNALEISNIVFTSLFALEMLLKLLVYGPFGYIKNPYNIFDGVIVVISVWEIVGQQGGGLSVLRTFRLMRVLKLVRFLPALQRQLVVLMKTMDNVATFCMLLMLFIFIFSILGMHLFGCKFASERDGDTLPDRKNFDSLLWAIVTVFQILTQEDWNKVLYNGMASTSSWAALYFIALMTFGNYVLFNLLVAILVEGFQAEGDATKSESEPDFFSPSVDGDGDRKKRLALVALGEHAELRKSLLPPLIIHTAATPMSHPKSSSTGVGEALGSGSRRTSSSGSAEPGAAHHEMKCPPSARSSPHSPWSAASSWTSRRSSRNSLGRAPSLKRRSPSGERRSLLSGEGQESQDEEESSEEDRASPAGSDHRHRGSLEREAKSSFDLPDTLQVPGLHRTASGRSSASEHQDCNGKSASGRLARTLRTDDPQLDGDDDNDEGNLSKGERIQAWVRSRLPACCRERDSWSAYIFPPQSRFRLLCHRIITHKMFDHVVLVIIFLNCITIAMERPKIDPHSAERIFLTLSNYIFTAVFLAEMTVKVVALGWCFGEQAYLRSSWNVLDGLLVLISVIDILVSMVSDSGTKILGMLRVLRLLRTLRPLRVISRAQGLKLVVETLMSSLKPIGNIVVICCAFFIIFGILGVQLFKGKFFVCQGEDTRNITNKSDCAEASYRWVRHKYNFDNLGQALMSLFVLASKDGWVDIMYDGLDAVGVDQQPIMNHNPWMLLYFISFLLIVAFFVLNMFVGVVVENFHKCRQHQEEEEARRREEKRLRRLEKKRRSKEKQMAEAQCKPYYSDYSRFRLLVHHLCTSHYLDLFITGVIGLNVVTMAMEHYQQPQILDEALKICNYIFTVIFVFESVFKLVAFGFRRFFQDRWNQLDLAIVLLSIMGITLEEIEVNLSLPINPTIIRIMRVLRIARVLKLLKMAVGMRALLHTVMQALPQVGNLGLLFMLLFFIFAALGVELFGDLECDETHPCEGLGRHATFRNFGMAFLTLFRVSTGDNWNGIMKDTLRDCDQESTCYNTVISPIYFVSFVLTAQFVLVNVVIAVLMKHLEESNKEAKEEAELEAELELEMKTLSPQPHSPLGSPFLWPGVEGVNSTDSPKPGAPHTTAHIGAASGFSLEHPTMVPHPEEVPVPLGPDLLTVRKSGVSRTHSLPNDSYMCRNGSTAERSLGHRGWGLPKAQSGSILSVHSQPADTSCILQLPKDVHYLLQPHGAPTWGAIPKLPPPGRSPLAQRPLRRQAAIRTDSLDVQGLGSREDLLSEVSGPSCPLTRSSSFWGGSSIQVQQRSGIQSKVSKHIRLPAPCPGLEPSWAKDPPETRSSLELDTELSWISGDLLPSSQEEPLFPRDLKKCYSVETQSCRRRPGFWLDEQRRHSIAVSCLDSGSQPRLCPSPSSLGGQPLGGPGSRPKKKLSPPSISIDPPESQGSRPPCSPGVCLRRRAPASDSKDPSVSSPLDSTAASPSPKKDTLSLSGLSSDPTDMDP
Experimental: HEK 293 cells were cultured in Dulbecco's modified Eagle's medium (DMEM) supplemented with 10% fetal bovine serum (FBS) and 1% penicillin/streptomycin (v/v) in 36.5° C. humidified incubator (95% air-5% CO2). The culture solution was replaced with a fresh medium every 3 to 4 days and the cultured cells were subjected to sub-culture every week. At this time, the culture solution was treated with G-418 (0.5 mg/ml) solution so that only HEK 293 cells expressing α1G T-type calcium channel can grow. The cells used for the T-type calcium channel activity assay were cultured on a cover slip coated with poly-L-lysine (0.5 mg/ml) whenever sub-cultured and their calcium channel activity was recorded 2 to 7 days after the cultivation. The current of the T-type calcium channel at a single cell level was measured according to an electrophysiological whole cell patch clamping method using EPC-9 amplifier (HEKA, German). At this time, a cell exterior solution [140 mM NaCl, 2 mM CaCl2, 10 mM HEPES (pH 7.4)] and a cell interior solution [KCl 130 mM, HEPES 10 mM, EGTA 11 mM, MgATP 5 mM (pH 7.4)] were employed. The inward current caused by the T-type calcium channel activation was measured according to a T-type calcium channel protocol activated at low current. Such current occurs when the cells were converted into a whole-cell recording mode by stabbing a microglass electrode having 3-4 MΩ resistance, which was filled with the cell interior solution into a single cell and depolarized at −30 mV (50 ms duration period) every 10 seconds with fixing membrane potential to −100 mV.
In order to confirm whether the cells and methods used in Test Example 2 are a suitable screening system for selecting T-type calcium channel blockers, the results obtained in Example 2 were compared with those of α1G T-type calcium channel study reported in a public document (Monteil, A. et al., J. Biol. Chem. 275, 6090-6100, 2000). […] Thus, the candidate compounds were subjected to a test for their inhibitory effects on the T-type calcium channel according to the screening system of the present invention, as follows. Each compound was dissolved in 100% dimethylsulfoxide (DMSO) to prepare 10 mM stock solution. The inhibitory effect on the T-type calcium channel current was examined in 10 μM sample solution (containing 0.1% DMSO) prepared by diluting the stock solution by 1000-fold. The cells were treated with each compound at a concentration of 10 μM for 30 to 60 sec with the cell exterior solution.

[3] = HEK293, 10 μM, HEK 293 cells expressing α1G, 30 to 60 sec treatment, read-out: inhibitory effect on peak current, HEK293 cells (α1G) at 10 μM
[4] = HEK293, read-out: inhibitory effect on peak current, HEK293 cells (α1G) at 10 μM

Row | SMILES | inhibition at 100 µM [1] | inhibition at 10 µM [2, 3] | IC50 ([2]; HEK 293 cells expressing α1G) | inhibition at 10 µM [2, 4] | inhibitory effect (blocking percentage), Xenopus oocyte (α1H) at 100 μM [1]
1 | O=C(CC1c2ccccc2N=C(N2CCOCC2)N1c1ccccc1)OCc1ccccc1 (stereo not shown) [Compound 05027] | 20.9% | – | – | – | –
2 | CN1CCN(C2=Nc3ccccc3C(CC(=O)OCc3ccccc3)N2c2ccccc2)CC1 (stereo not shown) [Compound 05029] | 32.7% | – | – | – | –
3 | O=C(CC1c2ccccc2N=C(c2ccccc2)N1c1ccccc1)NCc1ccccc1 (stereo not shown) [Compound 05031] | 14.8% | – | – | – | –
4 | O=C(CC1c2ccccc2N=C(c2ccccc2)N1c1ccccc1)OCc1ccccc1 (stereo not shown) [Compound 05032] | 14.2% | – | – | – | –
5 | CCO/C(O)=C(\C#N)C1=Nc2ccccc2C(CC(=O)OC)N1c1ccccc1 (stereo not shown) [Compound 05033] | 38.9% | – | – | – | –
6 | Nc1ccc(CNC(=O)CC2c3ccccc3N=C(N3CCCCC3)N2c2ccccc2)cc1 (stereo not shown) [Compound 05040] | 66.8% | 43.5% | 14.4 µM | – | –
7 | O=C(CC1c2ccccc2N=C(N2CCOCC2)N1c1ccccc1)NCc1ccccc1 (stereo not shown) [KYS05026, 4-(N-benzylacetamido)-3-phenyl-2-(morpholin-1-yl)-3,4-dihydroquinazoline] | 63.8% | 40.5% | 21.6 µM | – | –
8 | CN1CCN(C2=Nc3ccccc3C(CC(=O)NCc3ccccc3)N2c2ccccc2)CC1 (stereo not shown) [KYS05028, 4-(N-benzylacetamido)-3-phenyl-2-(4-methylpiperazinyl)-3,4-dihydroquinazoline] | 70.3% | – | 35.8 µM | 29% | –
9 | O=C(CC1c2ccccc2N=C(N2CCCCC2)N1c1ccccc1)NCc1ccc([N+](=O)[O-])cc1 (stereo not shown) [KYS05034, 4-[N-(4-nitrobenzyl)acetamido]-3-phenyl-2-(piperidine-1-yl)-3,4-dihydroquinazoline] | 91.9% | – | 2.5 µM | 92.3% | –
10 | COCC(=O)O[C@]1(CCN(C)CCCc2nc3ccccc3[nH]2)CCc2cc(F)ccc2[C@@H]1C(C)C [Mibefradil, reference compound] | 86% | – | – | – | 86.0%
